# Measured values from US11873290B2, “Pyridazinone compounds and uses thereof” (Edgewise Therapeutics, Inc., priority 2018, dated 2024).
# Molecular target: skeletal myofibrils (myosin ATPase activity)
# Test: Skeletal Myofibril ATPase Assay
# Type: biochemical
# Conditions: PK-LDH coupled, absorbance at 340 nm
# Method: Overview: Myosin ATPase activity is assessed by using a coupled reaction system, in which ADP generated by the myosin ATPase function is coupled to the disappearance of NADH through the pyruvate kinase/lactate dehydrogenase (PK-LDH) system. Myosin ATPase activity produces ADP, which is used as a substrate for PK to produce pyruvate and regenerate ATP. The pyruvate is then used as a substrate by LDH to oxidize NADH to NAD+. The rate of the reaction is monitored through the time-dependent disappearance of NADH using absorbance at 340 nm. Inhibition of ATPase activity by the assayed compounds is indicated by a reduced rate of NADH loss, relative to vehicle-treated controls, over the experimental time window. To assess the selectivity of the assayed compounds for skeletal myofibrils, the compounds are counter-screened in cardiac myofibrils.
# Materials: The following stock solutions and reagents were used in the Skeletal Myofibril ATPase Assay:
# Stock Solutions of pCa buffer. Combine PIPES, CaCl2, and EGTA solutions with 70 mL of water. Adjust pH to 7.0 and bring final volume to 100 mL.
# Skeletal Myofibril ATPase Assay Procedure: BSA, ATP, NADH, PEP, and DTT solutions were thawed at room temperature, then transferred to ice. Pellet-frozen myofibrils (approximately twice the required volume) were transferred into a sufficiently large tube and capped. Myofibrils were thawed by rolling in a water bath for approximately 15 min at room temperature and cooled on ice. Buffers A and B were prepared by adjusting volumes as necessary for required number of wells and stored on ice. 0.5 μL of the compounds to be assayed were added into wells of a 384-well plate. Buffers A and B were mixed by inversion immediately prior to use, then 25 μL of each was dispensed using a Multidrop dispenser (Buffer A first, then Buffer B). The absorbance within the wells was measured at 340 nm, using a kinetic protocol in which the wells are read every 1.5-2 min for 1 h. The reaction rate was qualitatively assessed by subtracting the minimum absorbance value from the maximum value for each well, using either the SoftMax Pro plate reader software or a spreadsheet program such as Excel. Using GraphPad Prism 8.0, the data was normalized, with 100% activity defined as the absorbance change in the 1% DMSO vehicle wells and 0% assigned to no change in absorbance over the course of the experiment. The normalized data were fit to a variable-slope four-parameter logistic model, constraining the bottom to be 0 or greater. Compounds of Table 1 to 4 were tested and results of the assay appear in Table 5 herein. A=IC50 is less than or equal to 10 μM; B=IC50 is greater than 10 μM and less than 100 μM; C=IC50 is greater than 100 μM; […].
row,SMILES,IC50
1,"O=c1ccc(-c2cnc(OCC(F)(F)F)nc2)nn1Cc1nc2cc(F)ccc2o1 [Compound 55, 2-((5-fluorobenzo[d]oxazol-2-yl)methyl)-6-(2-(2,2,2,- trifluoroethoxy)pyrimidin-5-yl)pyridazin-3(2H)-one]",< 10 µM
2,"COCc1cc(Cn2nc(-c3cnc(OCC(F)(F)F)nc3)ccc2=O)on1 [Compound 56, 2-((3-(methoxymethyl)isoxazol-5-yl)methyl)-6-(2-(2,2,2-trifluoroethoxy)pyrimidin-5-yl)pyridazin-3(2H)-one]",< 10 µM
3,"N#Cc1cncc(Cn2nc(-c3ccc(OC(F)F)nc3)ccc2=O)c1 [Compound 57, 5-((3-(6-(difluoromethoxy)pyridin-3-yl)-6-oxopyridazin-1(6H)-yl)methyl)nicotinonitrile]",10 to 100 µM
4,"Cn1cc(Cn2nc(-c3cnc(OCC(F)(F)F)nc3)ccc2=O)cn1 [Compound 58, 2-((1-methyl-1H-pyrazol-4-yl)methyl)-6-(2-(2,2,2-trifluoroethoxy)pyrimidin-5-yl)pyridazin-3(2H)-one]",< 10 µM
5,"O=c1ccc(-c2cnc(OCC(F)(F)F)nc2)nn1Cc1cncs1 [Compound 59, 2-(thiazol-5-ylmethyl)-6-(2-(2,2,2-trifluoroethoxy)pyrimidin-5-yl)pyridazin-3(2H)-one]",< 10 µM
6,"Cc1ncc(Cn2nc(-c3cnc(OCC(F)(F)F)nc3)ccc2=O)o1 [Compound 60, 2-((2-methyloxazol-5-yl)methyl)-6-(2-(2,2,2-trifluoroethoxy)pyrimidin-5-yl)pyridazin-3(2H)-one]",< 10 µM
7,"Cc1ncc(Cn2nc(-c3cnc(OCC(F)(F)F)nc3)ccc2=O)s1 [Compound 61, 2-((2-methylthiazol-5-yl)methyl)-6-(2-(2,2,2-trifluoroethoxy)pyrimidin-5-yl)pyridazin-3(2H)-one]",< 10 µM
8,"CSc1ncc(-c2ccc(=O)n(Cc3cc(C)no3)n2)cn1 [Compound 65, 2-((3-methylisoxazol-5-yl)methyl)-6-(2-(methylthio)pyrimidin-5-yl)pyridazine-3(2H)-one]",< 10 µM
9,O=c1ccc(-c2ccc(NC34CC(C3)C4)nc2)nn1Cc1cccnc1 [Compound 71],< 10 µM
10,"O=c1ccc(-c2ccc(NC34CC(C3)C4)nc2)nn1Cc1cncc(F)c1 [Compound 72, 6-(6-(bicyclo[1.1.1]pentan-1-ylamino)pyridin-3-yl)-2-((5-fluoropyridin-3-yl)methyl)pyridazin-3(2H)-one]",< 10 µM
11,"O=c1ccc(-c2cnc(NC34CC(C3)C4)nc2)nn1Cc1cncc(Cl)c1 [Compound 75, 6-(2-(bicyclo[1.1.1]pentan-1-ylamino)pyrimidin-5-yl)-2-((5-chloropyridin-3-yl)methyl)pyridazin-3(2H)-one]",< 10 µM
12,"O=c1ccc(-c2ccc(OC(F)F)nc2)nn1Cc1cncc(C(F)(F)F)c1 [Compound 76, 6-(6-(difluoromethoxy)pyridin-3-yl)-2-((5-(trifluoromethyl)pyridin-3-yl)methyl)pyridazin-3(2H)-one]",< 10 µM
13,"O=c1ccc(-c2cnc(OCC(F)(F)F)nc2)nn1Cc1cnccc1O [Compound 78, 2-((4-hydroxypyridin-3-yl)methyl)-6-(2-(2,2,2-trifluoroethoxy)pyrimidin-5-yl)pyridazin-3(2H)-one]",> 100 µM
14,"O=c1ccc(-c2cnc(OCC(F)(F)F)nc2)nn1Cc1cnccc1F [Compound 79, 2-((4-fluoropyridin-3-yl)methyl)-6-(2-(2,2,2-trifluoroethoxy)pyrimidin-5-yl)pyridazin-3(2H)-one]",< 10 µM
15,"O=c1ccc(-c2cnc(OCC(F)(F)F)nc2)nn1Cc1ccc[n+]([O-])c1 [Compound 80, 3-((6-oxo-3-(2-(2,2,2-trifluoroethoxy)pyrimidin-5-yl)pyridazin-1(6H)-yl)methyl)pyridine 1-oxide]",> 100 µM
16,"O=c1ccc(-c2cnc(OCC(F)(F)F)nc2)nn1Cc1cc[n+]([O-])cc1 [Compound 81, 4-((6-oxo-3-(2-(2,2,2-trifluoroethoxy)pyrimidin-5-yl)pyridazin-1(6H)-yl)methyl)pyridine 1-oxide]",> 100 µM
17,"O=c1ccc(-c2cnc(OCC(F)(F)F)nc2)nn1Cc1cc(F)c[n+]([O-])c1 [Compound 82, 3-fluoro-5-((6-oxo-3-(2-(2,2,2-trifluoroethoxy)pyrimidin-5-yl)pyridazin-1(6H)-yl)methyl) pyridine 1-oxide]",10 to 100 µM
18,"Cc1nc(Cn2nc(-c3cnc(OCC(F)(F)F)nc3)ccc2=O)co1 [Compound 83, 2-((2-methyloxazol-4-yl)methyl)-6-(2-(2,2,2-trifluoroethoxy)pyrimidin-5-yl)pyridazin-3(2H)-one]",10 to 100 µM
19,"O=c1ccc(-c2cnc(OCC(F)(F)F)nc2)nn1Cc1cnc(O)c(Cl)c1 [Compound 84, 2-((5-chloro-6-hydroxypyridin-3-yl)methyl)-6-(2-(2,2,2-trifluoroethoxy)pyrimidin-5-yl)pyridazin-3(2H)-one]",> 100 µM

# Results, then the compound that gave them:
row,IC50,SMILES
1,< 10 µM,"O=c1ccc(-c2cnc(N3CCCC3C(F)(F)F)nc2)nn1Cc1cncc(F)c1 (stereo not drawn) [Compound 54, 2-((5-fluoropyridin-3-yl)methyl)-6-(2-(2-(trifluoromethyl)pyrrolidin-l-yl)pyrimidin-5-yl)pyridazin-3(2H)-one]"
2,< 10 µM,"O=c1ccc(-c2cnc(NC34CC(C3)C4)nc2)nn1Cc1cncc(F)c1 [Compound 64, 6-(2-(bicyclo[1.1.1]pentan-1-ylamino)pyrimidin-5-yl)-2-((5-fluoropyridin-3-yl)methyl)pyridazine-3(2H)-one]"
3,< 10 µM,"O=c1ccc(-c2cnc(OCC3(F)COC3)nc2)nn1Cc1cncc(F)c1 [Compound 66, 6-(2-((3-fluorooxetan-3-yl)methoxy)pyrimidin-5-yl)-2((5-fluoropyridin-3-yl)methyl)pyridazine-3(2H)-one]"
4,< 10 µM,"CCOc1ncc(-c2ccc(=O)n(Cc3cncc(F)c3)n2)cn1 [Compound 68, 6-(2-ethoxypyrimidin-5-yl)-2-((5-fluoropyridin-3-yl)methyl)pyridazine-3(2H)-one]"
5,< 10 µM,"COc1ncc(-c2ccc(=O)n(Cc3cncc(F)c3)n2)cn1 [Compound 69, 2-((5-fluoropyridin-3-yl)methyl)-6-(2-methoxypyrimidin-5-yl)pyridazine-3(2H)-one]"
6,< 10 µM,"COCCOc1ncc(-c2ccc(=O)n(Cc3cncc(F)c3)n2)cn1 [Compound 70, 2-((5-fluoropyridin-3-yl)methyl)-6-(2-(2-methoxyethoxy)pyrimidin-5-yl)pyridazine-3(2H)-one]"
7,< 10 µM,"O=c1ccc(-c2cnc(N3CCC[C@@H]3C(F)(F)F)nc2)nn1Cc1cncc(F)c1 [Compound 73, (R)-2-((5-fluoropyridin-3-yl)methyl)-6-(2-(2-(trifluoromethyl)pyrrolidin-1-yl)pyrimidin-5-yl)pyridazin-3(2H)-one]"
8,< 10 µM,"O=c1ccc(-c2cnc(N3CCC[C@H]3C(F)(F)F)nc2)nn1Cc1cncc(F)c1 [Compound 74, (S)-2-((5-fluoropyridin-3-yl)methyl)-6-(2-(2-(trifluoromethyl)pyrrolidin-1-yl)pyrimidin-5-yl)pyridazin-3(2H)-one]"
9,< 10 µM,"O=c1ccc(-c2cnc(OCC(F)(F)F)nc2)nn1Cc1cncc(C(F)(F)F)c1 [Compound 77, 6-(2-(2,2,2-trifluoroethoxy)pyrimidin-5-yl)-2-((5-(trifluoromethyl)pyridin-3-yl)methyl)pyridazin-3(2H)-one]"
